Test results taken from publication PMC10982999, “Structure-Guided Design and Optimization of Covalent VHL-Targeted Sulfonyl Fluoride PROTACs” (Journal of Medicinal Chemistry, 2024).

Experiments:
AR-HiBiT LNCaP cells = settings: 16 h, 75 μM-1 pM
[1] = target: T1, AR (AR-HiBiT LNCaP cells) (Homo sapiens, UniProt P10275, T878A); assay: AR HiBiT degradation assay; assay type: cell-based; settings: for Dmax / DC50: LNCaP; for Dmax: read-out: Dmax (AR degradation); for AR degradation in presence of MLN4924: MLN4924 1 μM 3 h pretreatment, then compound 18 h; for AR degradation in presence of epoxomicin: epoxomicin 1 μM 3 h pretreatment, then compound 16 h; for DC50: read-out: DC50 (AR degradation), 16 h
T1 construct: host or cells: AR-HiBiT KI LNCaP
T1 sequence (P10275 1-920 T878A): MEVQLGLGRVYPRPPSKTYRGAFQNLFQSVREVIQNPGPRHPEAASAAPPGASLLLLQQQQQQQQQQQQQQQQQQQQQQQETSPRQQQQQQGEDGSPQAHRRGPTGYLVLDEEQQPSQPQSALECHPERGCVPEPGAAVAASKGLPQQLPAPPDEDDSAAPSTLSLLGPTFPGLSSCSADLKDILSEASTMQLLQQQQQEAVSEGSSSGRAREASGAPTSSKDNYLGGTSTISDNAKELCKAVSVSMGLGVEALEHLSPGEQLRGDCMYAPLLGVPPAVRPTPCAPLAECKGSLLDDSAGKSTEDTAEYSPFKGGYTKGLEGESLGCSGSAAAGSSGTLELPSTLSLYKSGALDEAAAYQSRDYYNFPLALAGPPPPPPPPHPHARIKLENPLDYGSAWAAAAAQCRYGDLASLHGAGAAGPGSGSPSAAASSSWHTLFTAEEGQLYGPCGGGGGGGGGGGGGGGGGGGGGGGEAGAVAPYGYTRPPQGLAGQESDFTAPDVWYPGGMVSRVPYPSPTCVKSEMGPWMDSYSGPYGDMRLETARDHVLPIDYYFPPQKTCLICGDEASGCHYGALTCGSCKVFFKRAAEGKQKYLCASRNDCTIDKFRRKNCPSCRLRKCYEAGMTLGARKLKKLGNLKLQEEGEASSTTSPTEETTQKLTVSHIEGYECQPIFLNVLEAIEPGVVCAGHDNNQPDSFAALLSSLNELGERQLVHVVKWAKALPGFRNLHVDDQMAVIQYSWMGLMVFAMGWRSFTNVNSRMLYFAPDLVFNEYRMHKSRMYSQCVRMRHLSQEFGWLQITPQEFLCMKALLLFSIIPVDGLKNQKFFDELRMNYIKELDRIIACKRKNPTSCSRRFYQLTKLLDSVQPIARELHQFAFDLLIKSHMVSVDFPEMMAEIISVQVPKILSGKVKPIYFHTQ
Protocol: Cellular BRD4/AR HiBiT assay
The HiBiT tagged cells were seeded at 10,000 cells per well in a 384-well plate (Thermo Scientific, 164610) at 25 µL per well in DMEM media containing 10% FBS and incubated overnight. Compounds were dispensed using D300e Digital Dispenser (HP) and normalized to 0.1% DMSO. Cells were pre-treated with Epoxomicin or MLN4924 for 3 h before treatment […]
Nano -Glo HiBiT lytic detection assay was performed as described in the manufacturer protocol (Promega). 25 µL of premixed detection reagent was added to each well of the 384 well assay plate and incubated for 15 min on an orbital shaker (at 600 RPM), and luminescence was read using a PHERAstar FS plate reader (BMG Labtech). Corresponding background RLU values were subtracted from DMSO control values and the percentage of protein (%) of were then calculated against […]
DMSO-treated controls. […]
1:1000 WB), Tubulin (Sigma #4967S 1:5000 WB).

| SMILES | cytotoxicity (CellTiter-Glo) (AR-HiBiT LNCaP cells) | Dmax [1] | AR degradation in presence of MLN4924 [1] | AR degradation in presence of epoxomicin [1] | DC50 [1] |
| --- | --- | --- | --- | --- | --- |
| Cc1cc([C@H](C(=O)N2C[C@H](S(=O)(=O)F)C[C@H]2C(=O)N[C@@H](CC(=O)N2CCC(C#Cc3ccc(C(=O)N[C@H]4C(C)(C)[C@H](Oc5ccc(C#N)c(Cl)c5)C4(C)C)cc3)CC2)c2ccc(-c3scnc3C)cc2)C(C)C)on1 [AR2-VHL-SF2, (3R,5S)-5-(((S)-3-(4-((4-(((1r,3r)-3-(3-Chloro-4-cyanophenoxy)-2,2,4,4-tetramethylcyclobutyl)-carbamoyl)phenyl)ethynyl)piperidin-1-yl)-1-(4-(4-methylthiazol-5-yl)phenyl)-3-oxopropyl)-carbamoyl)-1-((R)-3-methyl-2-(3-methylisoxazol-5-yl)butanoyl)pyrrolidine-3-sulfonyl fluoride] | did not exhibit cytotoxicity | 59% | AR degradation blockade | AR degradation blockade | 212 nM |
| Cc1cc([C@H](C(=O)N2C[C@H](S(=O)(=O)F)C[C@H]2C(=O)N[C@@H](CC(=O)N2CCC(C#Cc3ccc(C(=O)N[C@H]4C(C)(C)[C@H](Oc5ccc(C#N)c(C(F)(F)F)c5)C4(C)C)cc3)CC2)c2ccc(-c3scnc3C)cc2)C(C)C)on1 [AR-VHL-SF2, (3R,5S)-5-(((S)-3-(4-((4-(((1r,3r)-3-(4-Cyano-3-(trifluoromethyl)phenoxy)-2,2,4,4-tetramethyl-cyclobutyl)carbamoyl)phenyl)ethynyl)piperidin-1-yl)-1-(4-(4-methylthiazol-5-yl)phenyl)-3-oxo-propyl)carbamoyl)-1-((R)-3-methyl-2-(3-methylisoxazol-5-yl)butanoyl)pyrrolidine-3-sulfonyl fluoride] | did not exhibit cytotoxicity | 54% | AR degradation blockade | AR degradation blockade | 527 nM |
